Reference: article PMC7915732, “Screening of Yeast Display Libraries of Enzymatically Treated Peptides to Discover Macrocyclic Peptide Ligands” (International Journal of Molecular Sciences, 2021)

Assays:
[1] = target: T1, WW domains of YAP (WW-YAP) (Homo sapiens, UniProt P46937); assay: Static binding assay on peptide-Toyopearl resin, Langmuir isotherm, WW-YAP; conditions: binding capacity (mg protein/mL resin), PBS pH 7.4, 1 h room temperature, Langmuir fit, average of three independent replicates ± one standard error
T1 construct: which affords the expression of the WW domains of YAP (AAs 165–271); made in house; host or cells: Rosetta E. coli
Protocol: (§1) The known WW-binding peptide sequence [sequence] […] Protein adsorption isotherms were generated by incubating the peptide-functionalized resin with soluble N-terminal YAP or WW-YAP (20 μg/mL–3 mg/mL).
(§2) The supernatants were collected and analyzed by UV spectrophotometry at 280 nm to measure the amount of unbound protein. The amount of protein adsorbed on the resin was determined via mass balance. The KD describing the binding affinity of the soluble protein to the peptide-functionalized resin was determined by fitting the adsorption data to a Langmuir isotherm:(2) q=qmax[C]/KD+[C] where q is the amount of protein adsorbed on the resin (mg protein/mL resin), [C] is the unbound concentration of protein at equilibrium (mg protein/mL solution), qmax is the maximum protein binding capacity (mg protein/mL resin), and KD is the dissociation constant (mg protein/mL solution). Equation (2) was independently fit to the data obtained from triplicate adsorption studies, and the fitted values of KD and qmax were averaged across the repeats.

N-terminal YAP (N-YAP) = target: T2, N-terminal YAP (N-YAP) (Homo sapiens, UniProt P46937); assay: Static binding assay on peptide-Toyopearl resin, Langmuir isotherm, N-terminal YAP; conditions: binding capacity (mg protein/mL resin), PBS pH 7.4, 1 h room temperature, Langmuir fit, average of three independent replicates ± one standard error
T2 construct: which affords the expression of N-terminal YAP (AAs 1–291); made in house; host or cells: Rosetta E. coli
T2 sequence (P46937 1-291): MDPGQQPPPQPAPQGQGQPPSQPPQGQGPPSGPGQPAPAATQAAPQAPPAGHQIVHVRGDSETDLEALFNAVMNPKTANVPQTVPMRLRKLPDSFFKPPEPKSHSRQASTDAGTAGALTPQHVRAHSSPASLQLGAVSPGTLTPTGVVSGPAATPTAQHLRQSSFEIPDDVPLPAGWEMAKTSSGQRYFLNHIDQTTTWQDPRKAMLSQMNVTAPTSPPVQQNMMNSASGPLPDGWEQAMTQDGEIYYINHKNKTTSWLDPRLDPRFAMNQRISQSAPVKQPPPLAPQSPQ
Protocol: as §1, §2

T1 sequence (P46937 165-271): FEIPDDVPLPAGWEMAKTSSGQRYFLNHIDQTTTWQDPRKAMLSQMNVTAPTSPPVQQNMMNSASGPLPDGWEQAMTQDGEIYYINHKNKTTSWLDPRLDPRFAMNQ

Qmax WW-YAP (resin) [1]: 8.3 ± 0.27 mg/mL
Qmax N-YAP (resin) (N-terminal YAP (N-YAP)): 4.11 ± 0.12 mg/mL
Sequence: RYSPPPPYSSHS [PTCH peptide]
